Measured values published in paper PMC7553383 (ACS Chemical Neuroscience, 2020).

Key:
GIRK1/4 channels = target: T1, GIRK1/4 channels (Homo sapiens, UniProt P48544+P48549); assay: Ligand-induced GIRK channel block in oocytes expressing GIRK channels in the absence of D2R; format: cell-based; conditions: for Current amplitude following application of ligand in the absence of D2R expression: oocytes injected with GIRK1 and GIRK4; for Ligand-induced GIRK channel block: 30 μM ligand, oocytes without D2R
T1 sequence (P48549 1-501): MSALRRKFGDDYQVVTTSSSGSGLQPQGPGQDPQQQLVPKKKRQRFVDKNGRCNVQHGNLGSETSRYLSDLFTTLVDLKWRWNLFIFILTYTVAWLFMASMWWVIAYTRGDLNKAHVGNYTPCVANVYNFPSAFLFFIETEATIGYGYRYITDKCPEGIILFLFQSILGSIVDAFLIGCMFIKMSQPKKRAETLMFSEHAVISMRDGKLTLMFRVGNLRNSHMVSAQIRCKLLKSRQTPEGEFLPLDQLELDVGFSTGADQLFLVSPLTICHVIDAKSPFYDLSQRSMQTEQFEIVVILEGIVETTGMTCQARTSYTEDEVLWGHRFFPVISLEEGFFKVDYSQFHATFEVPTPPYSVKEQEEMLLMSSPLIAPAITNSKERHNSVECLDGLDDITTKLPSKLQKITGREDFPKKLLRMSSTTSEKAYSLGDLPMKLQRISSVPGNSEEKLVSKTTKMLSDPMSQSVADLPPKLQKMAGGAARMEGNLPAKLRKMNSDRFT
T1 sequence (P48544 1-419): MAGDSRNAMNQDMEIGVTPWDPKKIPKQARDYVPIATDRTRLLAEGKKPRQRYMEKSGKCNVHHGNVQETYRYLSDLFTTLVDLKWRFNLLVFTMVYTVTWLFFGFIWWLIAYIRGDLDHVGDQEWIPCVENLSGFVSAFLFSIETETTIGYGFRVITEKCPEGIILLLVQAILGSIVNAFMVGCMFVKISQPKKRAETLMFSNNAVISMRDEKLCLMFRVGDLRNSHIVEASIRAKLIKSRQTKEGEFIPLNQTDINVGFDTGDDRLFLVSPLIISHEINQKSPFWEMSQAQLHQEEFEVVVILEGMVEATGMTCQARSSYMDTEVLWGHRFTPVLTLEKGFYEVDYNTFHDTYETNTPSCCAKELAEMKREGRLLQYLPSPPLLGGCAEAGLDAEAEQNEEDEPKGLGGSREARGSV
From the text: Figure S1. Effect of competing ligands on GIRK currents in the absence of D2R expression. Current
Figure S2. Intrinsic activities of aripiprazole analogues at WT D2R. Agonist responses of SWR-1-8, SV-III- […]

D2R WT [1] = target: T2, D2R WT (Homo sapiens, UniProt P14416); assay: G protein-coupled inward rectifier potassium (GIRK) channel activation assay in Xenopus oocytes coexpressing D2R, RGS4 and GIRK1/4
T2 sequence (P14416 whole entry): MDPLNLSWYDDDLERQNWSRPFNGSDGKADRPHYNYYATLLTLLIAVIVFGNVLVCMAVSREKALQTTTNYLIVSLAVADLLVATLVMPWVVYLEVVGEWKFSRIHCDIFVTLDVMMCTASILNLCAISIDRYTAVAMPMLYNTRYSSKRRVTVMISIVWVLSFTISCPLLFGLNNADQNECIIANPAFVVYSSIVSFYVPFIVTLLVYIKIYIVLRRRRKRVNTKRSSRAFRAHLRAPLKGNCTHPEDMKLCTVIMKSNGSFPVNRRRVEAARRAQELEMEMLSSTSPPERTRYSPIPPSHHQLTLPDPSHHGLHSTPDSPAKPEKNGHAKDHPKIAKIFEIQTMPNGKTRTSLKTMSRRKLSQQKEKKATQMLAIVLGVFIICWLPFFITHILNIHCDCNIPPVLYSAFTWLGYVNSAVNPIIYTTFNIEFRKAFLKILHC

D2R = target: T3, D2R (Homo sapiens, UniProt P14416); assay: BRET beta-arrestin2 recruitment curve-shift assay in transfected HEK293 cells; format: cell-based; conditions: 5 min preincubation with antagonist before dopamine
T3 construct: expressed in transfected cells
T3 sequence (P14416 whole entry): as above

D2R WT [2] = target: T2, D2R WT; assay: cell-based

Current amplitude following application of ligand in the absence of D2R expression (GIRK1/4 channels; 1 µM ligand)	Ligand-induced GIRK channel block (GIRK1/4 channels) [%]	Kd (D2R WT [1]) [nM]	koff (D2R WT [1]) [s⁻¹]	intrinsic activity in the GIRK activation assay (in words) (D2R WT [1]; WT D2R, normalized to 1 μM DA)	mode of antagonism of DA-induced beta-arrestin2 recruitment (D2R)	Ki (D2R WT [2]) [nM]	Current amplitude following application of ligand in the absence of D2R expression (GIRK1/4 channels; 30 µM ligand)	SMILES
1.00 ± 0.02	< 10	–	–	–	–	–	–	COc1ccccc1N1CCN(CCCCOc2ccc3c(c2)NC(=O)CC3)CC1 [SV-III-130]
–	< 10	50.1	0.017 ± 0.002	antagonists/inverse agonists	competitive antagonism	9.77	0.99 ± 0.06	COc1ccccc1N1CCN(CCCOc2ccc3c(c2)NC(=O)CC3)CC1 [SWR-1-8]
–	< 10	–	–	–	–	–	0.90 ± 0.01	COc1ccccc1N1CCN(CCCCCOc2ccc3c(c2)NC(=O)CC3)CC1 [SWR-1-14]
